PubChem BioAssay (NCI)
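How tested: cells in 96-well plates exposed to compound for 48 hours at five concentrations. At the GI50, growth is halved. Definition used: TGI = concentration required for complete inhibition of growth.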

Tests used:
Assay in all cases: growth of human tumour cells (NCI), 48 h
K-562 leukemia = system: K-562 leukemia
MCF7 breast = system: MCF7 breast
CAKI-1 renal = system: CAKI-1 renal
HCT-15 colon = system: HCT-15 colon
LOX IMVI melanoma = system: LOX IMVI melanoma
DU-145 prostate = system: DU-145 prostate
UACC-62 melanoma = system: UACC-62 melanoma
MDA-MB-231 breast = system: MDA-MB-231 breast
SK-MEL-2 melanoma = system: SK-MEL-2 melanoma
SNB-19 CNS = system: SNB-19 CNS

SMILES	TGI (K-562 leukemia) [µM]	TGI (MCF7 breast) [µM]	TGI (CAKI-1 renal) [µM]	TGI (HCT-15 colon) [µM]	TGI (LOX IMVI melanoma) [µM]	TGI (DU-145 prostate) [µM]	TGI (UACC-62 melanoma) [µM]	TGI (MDA-MB-231 breast) [µM]	TGI (SK-MEL-2 melanoma) [µM]	TGI (SNB-19 CNS) [µM]	GI50 (K-562 leukemia) [µM]	GI50 (MCF7 breast) [µM]	GI50 (SNB-19 CNS) [µM]	GI50 (CAKI-1 renal) [µM]	GI50 (HCT-15 colon) [µM]	GI50 (LOX IMVI melanoma) [µM]	GI50 (DU-145 prostate) [µM]	GI50 (UACC-62 melanoma) [µM]	GI50 (MDA-MB-231 breast) [µM]	GI50 (SK-MEL-2 melanoma) [µM]
O=c1[nH]nc(-c2ccccc2)n1/N=C\c1ccccc1	> 100	> 100	> 100	> 100	> 100	> 100	> 100	> 100	> 100	–	–	–	–	–	–	–	–	–	–	–
COc1c(O)c(C=O)c2c(O)c(-c3c(C)cc4c(C(C)C)c(OC)c(O)c(C=O)c4c3O)c(C)cc2c1C(C)C	> 100	–	16.9	14	–	–	29	–	11.1	16.5	–	–	–	–	–	–	–	–	–	–
COc1ccc(N2C(=O)CC(=O)N(C(=O)COc3ccc(OCC(=O)N4C(=O)CC(=O)N(c5ccc(OC)cc5)C4=S)cc3)C2=S)cc1	> 100	> 100	30.3	> 100	–	> 100	> 100	> 100	> 100	> 100	–	–	–	–	–	–	–	–	–	–
C=C[C@@H](C)[C@H](NS(=O)(=O)c1ccc(C)cc1)C(=O)OCC	> 100	70.6	–	> 100	34.7	> 100	> 100	> 100	> 100	> 100	–	–	–	–	–	–	–	–	–	–
Nc1ccc(S(=O)(=O)c2ccc(NCN3C(=O)NC(=O)C(=O)C3=O)cc2)cc1	> 100	–	> 100	> 100	> 100	–	> 100	> 100	> 100	> 100	–	–	–	–	–	–	–	–	–	–
O=C(N/N=C/C=C/c1ccc([N+](=O)[O-])o1)c1cc2ccccc2cc1O	9.53	3.54	5.02	4.23	1.58	8.67	2.77	8.65	–	24.4	0.632	0.711	3.2	0.933	0.465	0.356	2.26	1.03	2.17	–
CO/N=C1\CC(NC(=O)CNC(=O)OC(C)(C)C)c2ccsc21 (configuration not stated)	–	> 100	> 100	> 100	> 100	> 100	> 100	> 100	> 100	–	–	–	–	–	–	–	–	–	–	–
CCN(CC)N1C(=O)[N+](CC)(CC)N=C1[O-]	–	> 100	> 100	> 100	> 100	> 100	> 100	> 100	> 100	> 100	–	–	–	–	–	–	–	–	–	–
NS(=O)(=O)c1ccc(/C=C/c2ccc(F)cc2)cc1	> 100	> 100	> 100	33.3	> 100	> 100	–	50.7	86.7	> 100	14.9	–	–	36.3	9.97	26.7	–	–	–	–
CC(=O)Oc1cc2c(cc1OC(C)=O)OCC(c1ccc(C)cc1)C2 (configuration not stated)	72.3	50.4	40.4	40.7	37.7	–	21.3	–	34.1	124	–	–	–	–	–	–	–	–	–	–
C/C=C/c1cc(=O)c([C@@H]2OC(=O)c3cc(OC)cc(OC)c32)co1	> 100	–	> 100	–	–	–	> 100	–	> 100	> 100	–	–	–	–	–	–	–	–	–	–
O=C1C(Cl)=C(OCCCl)C(=O)c2c(O)ccc(O)c21	1.08	5.19	3.93	7.01	12.4	32.2	14	10.6	–	32.7	–	–	–	–	–	–	–	–	–	–
Cc1cc(C)nc(SC2=C(Nc3ccc(C)c(Cl)c3)C(=O)N(Cc3ccccc3)C2=O)n1	–	–	–	–	> 160	> 160	> 160	–	> 160	> 160	–	–	> 160	–	–	> 160	> 160	> 160	–	> 160
CCOC(=O)c1nc2ccc(C(F)(F)F)cc2nc1Oc1cc(OC)c(OC)c(OC)c1	> 100	> 100	–	> 100	> 100	> 100	> 100	> 100	> 100	> 100	–	–	–	–	–	–	–	–	–	–
OCCO/N=C1\C(c2c(O)[nH]c3ccccc23)=Nc2ccccc21	> 100	> 100	> 100	> 100	> 100	> 100	> 100	–	> 100	> 100	–	–	–	–	–	–	–	–	–	–
CC(=C(c1ccccc1)c1ccccc1)N1C(=O)CC(=O)N1C	> 100	> 100	64.8	–	31.2	> 100	83.6	–	> 100	> 100	–	–	–	–	–	–	–	–	–	–
